Results as given in PubChem BioAssay (NCI).
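Cultured in 96-well plates, cells were exposed to test compound for 48 hours across five concentrations. Abbreviation: GI50, concentration required for 50% inhibition of growth. TGI denotes the concentration required for complete inhibition of growth.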

Legend:
Assay in all cases: NCI anticancer screen, dose series, 48 h
HOP-62 NSCLC = system: HOP-62 NSCLC
A549 NSCLC = system: A549 NSCLC
HCT-15 colon = system: HCT-15 colon
SF-295 CNS = system: SF-295 CNS
HS 578T breast = system: HS 578T breast
OVCAR-8 ovarian = system: OVCAR-8 ovarian
HL-60(TB) leukemia = system: HL-60(TB) leukemia
NCI-H23 lung = system: NCI-H23 lung
OVCAR-5 ovarian = system: OVCAR-5 ovarian
NCI-H226 lung = system: NCI-H226 lung

| SMILES | TGI (HOP-62 NSCLC) | TGI (A549 NSCLC) | TGI (HCT-15 colon) | TGI (SF-295 CNS) | TGI (HS 578T breast) | TGI (OVCAR-8 ovarian) | TGI (HL-60(TB) leukemia) | TGI (NCI-H23 lung) | TGI (OVCAR-5 ovarian) | TGI (NCI-H226 lung) | GI50 (HOP-62 NSCLC) | GI50 (A549 NSCLC) | GI50 (HCT-15 colon) | GI50 (SF-295 CNS) | GI50 (HS 578T breast) | GI50 (OVCAR-8 ovarian) | GI50 (HL-60(TB) leukemia) | GI50 (NCI-H23 lung) | GI50 (OVCAR-5 ovarian) | GI50 (NCI-H226 lung) |
| --- | --- | --- | --- | --- | --- | --- | --- | --- | --- | --- | --- | --- | --- | --- | --- | --- | --- | --- | --- | --- |
| CCOC(=O)C(O)(NC(=O)c1ccccc1F)C(F)(F)F (stereo unspecified) | > 100 µM | > 100 µM | > 100 µM | > 100 µM | > 100 µM | > 100 µM | > 100 µM | > 100 µM | > 100 µM | > 100 µM |  |  |  |  |  |  |  |  |  |  |
| CO/N=C(\C)COc1ccc2c(=O)c(-c3ccccc3)coc2c1 | 46.6 µM | > 100 µM | > 100 µM | 65.2 µM | > 100 µM | 46.8 µM | > 100 µM | 89 µM | 43.8 µM | > 100 µM | 17.8 µM | 27.1 µM | 40.1 µM | 31.9 µM | 63.1 µM | 21.4 µM | 37.7 µM | 26.4 µM | 3.23 µM | 36.4 µM |
| COc1cc(C2C(C(=O)O)=C(COC(C)=O)Oc3cc4c(cc32)OCO4)cc(OC)c1OC (stereo unspecified) | > 100 µM | > 100 µM | > 100 µM | > 100 µM |  | > 100 µM | > 100 µM | > 100 µM | > 100 µM |  |  |  |  |  |  |  |  |  |  |  |
| CN(C)c1ccc(C(Cc2ccc3ccccc3n2)Cc2ccc3ccccc3n2)cc1 | > 100 µM |  |  | > 100 µM | > 100 µM |  |  |  |  | > 100 µM | 5.84 µM |  |  | 3.26 µM | 6.22 µM |  |  |  |  | 4.4 µM |
